Source: patent publication US20240285571A1, “METHODS OF TREATING BONE INFECTIONS” (MICROBION CORPORATION, priority 2020, published 2024)

How the values were obtained:
Streptococcus oralis = assay: MIC of baseline clinical isolates (Example 8); format: cell-based; conditions: Streptococcus oralis baseline isolates (N′ = 1), central laboratory, mITT
Experimental: (§1) Microbiology was assessed on Day 1 and at the time of any subsequent surgical procedure at the index site. Samples were collected from the infected bone site or involved tissue adjacent to any implant(s), swabs of the deep infection site, and the superficial tissue/wound closure/sinus tract site. Isolation and identification of aerobic and anerobic bacteria was conducted at a central microbiology laboratory (IHMA, Schaumburg, IL) and susceptibility of the isolates to MBN-101 (BisEDT) and comparator agents was performed per Clinical and Laboratory Standards Institute (CLSI). Parallel sets of samples were analyzed by the local clinical site laboratory to guide patient antibiotic treatment.

[1] = test system: non-speciated Corynebacterium; assay: MIC of baseline clinical isolates (Example 8); format: cell-based; conditions: Corynebacterium non-speciated baseline isolates (N′ = 2), central laboratory, mITT
Experimental: as §1

[2] = test system: Corynebacterium resistens; assay: MIC of baseline clinical isolates (Example 8); format: cell-based; conditions: Corynebacterium resistens baseline isolates (N′ = 1), central laboratory, mITT
Experimental: as §1

Corynebacterium jeikeium = assay: MIC of baseline clinical isolates (Example 8); format: cell-based; conditions: Corynebacterium jeikeium baseline isolates (N′ = 2), central laboratory, mITT
Experimental: as §1

[3] = test system: Corynebacterium amycolatum; assay: MIC of baseline clinical isolates (Example 8); format: cell-based; conditions: Corynebacterium amycolatum baseline isolates (N′ = 1), central laboratory, mITT
Experimental: as §1

Dermabacter hominis = assay: MIC of baseline clinical isolates (Example 8); format: cell-based; conditions: Dermabacter hominis baseline isolates (N′ = 1), central laboratory, mITT
Experimental: as §1

Staphylococcus arlettae = assay: MIC of baseline clinical isolates (Example 8); format: cell-based; conditions: Staphylococcus arlettae baseline isolates (N′ = 1), central laboratory, mITT
Experimental: (§2) Microbiology was assessed on Day 1 and at the time of any subsequent surgical procedure at the index site. Samples were collected from the infected bone site or involved tissue adjacent to any implant(s), swabs of the deep infection site, and the superficial tissue/wound closure/sinus tract site. […] Parallel sets of samples were analyzed by the local clinical site laboratory to guide patient antibiotic treatment.

S. aureus (MRSA, MSSA) = assay: MIC of baseline clinical isolates (Example 8); format: cell-based; conditions: Staphylococcus aureus, MRSA baseline isolates (N′ = 4), central laboratory, mITT
Experimental: as §2

[4] = test system: Staphylococcus haemolyticus; assay: MIC of baseline clinical isolates (Example 8); format: cell-based; conditions: Staphylococcus haemolyticus baseline isolates (N′ = 1), central laboratory, mITT
Experimental: as §2

Staphylococcus pasteuri = assay: MIC of baseline clinical isolates (Example 8); format: cell-based; conditions: Staphylococcus pasteuri baseline isolates (N′ = 1), central laboratory, mITT
Experimental: as §2

[5] = test system: Staphylococcus lugdunensis; assay: MIC of baseline clinical isolates (Example 8); format: cell-based; conditions: Staphylococcus lugdunensis baseline isolates (N′ = 3), central laboratory, mITT
Experimental: as §2

Staphylococcus hominis = assay: MIC of baseline clinical isolates (Example 8); format: cell-based; conditions: Staphylococcus hominis baseline isolates (N′ = 1), central laboratory, mITT
Experimental: as §2

S. epidermidis = assay: MIC of baseline clinical isolates (Example 8); format: cell-based; conditions: Staphylococcus epidermidis baseline isolates (N′ = 5), central laboratory, mITT
Experimental: as §2

[6] = test system: relevant ATCC QC organisms; assay: Broth microdilution MIC, QC (Example 6); format: cell-based; conditions: S. aureus ATCC 29213
Experimental: (§3) Test Compounds: The test agents BisEDT (MB-1-B3; Lot No. ED268-1-11-01), MB-2B, and MB-6 were stored at room temperature, in the dark, until assayed. The solvent and diluent for the test agents was DMSO (Sigma; St. Louis, MO; Lot No. SHBB9319V) and the prepared stock concentration was 6,464 μg/mL (101× the final test concentration).
(§4) Test compounds were evaluated at a concentration range of 0.06-64 μg/mL. For Gram-negative test isolates, amikacin and ceftazidime (alone and with clavulanate at a fixed concentration of 4 μg/mL) were evaluated over a concentration range of 0.06-64 μg/mL; meropenem and levofloxacin were evaluated over a concentration range of 0.008-8 μg/mL. For the testing of S. aureus, clindamycin, daptomycin, levofloxacin and vancomycin were evaluated at a concentration range of 0.008-8 μg/mL; linezolid was tested from 0.03-32 μg/mL.
Organisms: The test organisms as shown in Tables 11-15 consisted of clinical isolates from the Micromyx (MMX) repository and reference strains from the American Type Culture Collection (ATCC; Manassas, VA), National Collection of Type Cultures (NCTC; Public Health England, Salisbury, UK), the Network on Antimicrobial Resistance in Staphylococcus aureus (NARSA; BEI Resources, Manassas, VA), and the Centers for Disease Control and Prevention (CDC; Atlanta, GA). The test organisms were maintained frozen at −80° C. Prior to testing, the isolates were cultured on Tryptic Soy Agar with 5% sheep blood (BAP; Becton Dickson [BD]/BBL; Sparks, MD; Lot Nos. 9080650 and 9108563) at 35° C. Relevant ATCC quality control (QC) organisms (Table 16) were included during testing in accordance with CLSI guidelines (3). Further details on the genetic characterization of the isolates where available can be found in Table 17.
(§5) Media: Cation-adjusted Mueller Hinton broth (CAMHB; BD; Lot No. 8190586) was used as the medium for testing (2, 3). For testing daptomycin, calcium was supplemented with […] Ca^2+, resulting in a final concentration of […] Ca^2+ (2, 3).
(§6) MIC Assay Procedure: MIC values were determined using a broth microdilution procedure described by CLSI (2, 3). Automated liquid handlers (Multidrop 384, Labsystems, Helsinki, Finland; Biomek 2000 and Biomek F X, Beckman Coulter, Fullerton CA) were used to conduct serial dilutions and liquid transfers.
(§7) To prepare the drug mother plates, which would provide the serial drug dilutions for the replicate daughter plates, the wells of columns 2 through 12 of standard 96-well microdilution plates (Costar 3795) were filled with 150 μl of the appropriate diluent for each row of drug. The test articles and comparator compounds (300 μl at 101× the highest concentration to be tested) were dispensed into the appropriate wells in column 1. The Biomek 2000 was then used to make 2-fold serial dilutions in the mother plates from column 1 through column 11. The wells of column 12 contained no drug and served as the organism growth control wells for the assay.
(§8) The daughter plates were loaded with 190 μL per well of RPMI using the Multidrop 384. The test panels were prepared on the Biomek FX instrument which transferred 2 μL of drug solution from each well of a mother plate to the corresponding well of each daughter plate in a single step.
(§9) A standardized inoculum of each test organism was prepared per CLSI methods to equal a 0.5 McFarland standard, followed by a dilution of 1:20. The plates were then inoculated with 10 μL of the diluted inoculum using the Biomek 2000 from low to high drug concentration resulting in a final concentration of approximately 5×10^5 CFU/mL.
(§10) Plates were stacked 3-4 high, covered with a lid on the top plate, placed into plastic bags, and incubated at 35° C. for 16 to 20 hr (vancomycin was read for S. aureus after 24 hr incubation time). The MIC was recorded as the lowest concentration of drug that inhibited visible growth of the organism.

[7] = test system: relevant ATCC QC organisms; conditions: S. aureus ATCC 29213; CLSI established QC range; cited from earlier work
[8] = test system: vancomycin-intermediate Staphylococcus aureus; assay: Broth microdilution MIC (Example 6); format: cell-based
Experimental: as §3, §4, §5, §6, §7, §8, §9, §10

Structure (SMILES)	Mean MIC (Streptococcus oralis) [µg/mL]	n (% resistant) (Streptococcus oralis)	Mean MIC [1] [µg/mL]	Mean MIC [2] [µg/mL]	n (% resistant) [2]	Mean MIC (Corynebacterium jeikeium) [µg/mL]	n (% resistant) (Corynebacterium jeikeium)	n (% resistant) [3]	Mean MIC (Dermabacter hominis) [µg/mL]	Mean MIC (Staphylococcus arlettae) [µg/mL]	n (% resistant) (Staphylococcus arlettae)	Mean MIC (S. aureus (MRSA, MSSA)) [µg/mL]	n (% resistant) (S. aureus (MRSA, MSSA))	Mean MIC [4] [µg/mL]	Mean MIC (Staphylococcus pasteuri) [µg/mL]	Mean MIC [5] [µg/mL]	n (% resistant) [5]	Mean MIC (Staphylococcus hominis) [µg/mL]	Mean MIC (S. epidermidis) [µg/mL]	n (% resistant) (S. epidermidis)	also measured
COc1cc(Cc2cnc(N)nc2N)cc(OC)c1OC.Cc1cc(NS(=O)(=O)c2ccc(N)cc2)no1 [SXT]	0.12	0 (0.0) n (%)	2.25	2.00	0 (0.0) n (%)	2.00	0 (0.0) n (%)	0 (0.0) n (%)	4.00	8.00	1 (100.0) n (%)	2.09	1 (25.0) n (%)	0.25	0.12	0.16	0 (0.0) n (%)	8.00	4.42	3 (60.0) n (%)	Mean MIC [3]: 0.25 µg/mL; n (% resistant) [4]: 10.0 n (%)
CN[C@H](CC(C)C)C(=O)N[C@H]1C(=O)N[C@@H](CC(N)=O)C(=O)N[C@H]2C(=O)N[C@H]3C(=O)N[C@H](C(=O)N[C@H](C(=O)O)c4cc(O)cc(O)c4-c4cc3ccc4O)[C@H](O)c3ccc(c(Cl)c3)Oc3cc2cc(c3O[C@@H]2O[C@H](CO)[C@@H](O)[C@H](O)[C@H]2O[C@H]2C[C@](C)(N)[C@H](O)[C@H](C)O2)Oc2ccc(cc2Cl)[C@H]1O [VAN]	0.50	0 (0.0) n (%)	0.12	1.00	0 (0.0) n (%)		0 (0.0) n (%)	0 (0.0) n (%)	0.25	2.00	0 (0.0) n (%)	1.25	0 (0.0) n (%)	1.00	1.00	0.83	0 (0.0) n (%)	2.00	150	0 (0.0) n (%)	MIC [6]: 0.5 µg/mL; n (% resistant) [1]: 0 (0.0) n (%); n (% resistant) (Dermabacter hominis): 0 (0.0) n (%); MIC QC range (in parentheses) [7]: (0.5-2) μg/mL; MIC ([8]; S. aureus isolate NRS 1 (hVISA)): 4 µg/mL; MIC ([8]; S. aureus isolate NRS 2): 0.5 µg/mL; MIC ([8]; S. aureus isolate NRS 3): 8 µg/mL; MIC ([8]; S. aureus isolate NRS 4): 4 µg/mL; MIC ([8]; S. aureus isolate NRS 13): 2 µg/mL; MIC ([8]; S. aureus isolate NRS 18): 4 µg/mL; MIC ([8]; S. aureus isolate NRS 22): 4 µg/mL; MIC ([8]; S. aureus isolate NRS 24 (hVISA)): 2 µg/mL; MIC ([8]; S. aureus isolate NRS 27): 2 µg/mL; n (% resistant) (Staphylococcus pasteuri): 0 (0.0) n (%); n (% resistant) (Staphylococcus hominis): 0 (0.0) n (%)
CC1(C)S[C@@H]2[C@H](NC(=O)[C@H](N)c3ccc(O)cc3)C(=O)N2[C@H]1C(=O)O.O=C(O)[C@H]1/C(=C/CO)O[C@@H]2CC(=O)N21 [AMC]	0.06	0 (0.0) n (%)	4.03	8.00	0 (0.0) n (%)	3.00	0 (0.0) n (%)	0 (0.0) n (%)	0.50	0.25	0 (0.0) n (%)	8.00	0 (0.0) n (%)	2.00	0.12	3.67	0 (0.0) n (%)	2.00	1.05	0 (0.0) n (%)	n (% resistant) [1]: 0 (0.0) n (%); Mean MIC [3]: 1.00 µg/mL; n (% resistant) (Dermabacter hominis): 0 (0.0) n (%); n (% resistant) [4]: 0 (0.0) n (%); n (% resistant) (Staphylococcus pasteuri): 0 (0.0) n (%); n (% resistant) (Staphylococcus hominis): 0 (0.0) n (%)
